Test results: patent publication US8722656B2, “Cephalosporins useful as antibacterial agents” (Zoetis LLC, priority 2011, dated 2014)
In brackets after ≈: the same amount, converted by molar mass.

How the values were obtained:
E. coli 25922 = test: Dilution antimicrobial susceptibility test (M07-A8), E. coli; assay type: cell-based, Escherichia coli; details: for MIC: Escherichia coli, antibacterial activity by dilution susceptibility test, isolate 25922; for E. coli/P. multocida: selectivity for P. multocida over E. coli (ratio of the two values)
Description: (§1) Compounds of the present invention were tested against an assortment of Gram-negative and Gram-positive organisms using the industrial standard techniques described in Methods for Dilution Antimicrobial Susceptibility Tests for Bacteria That grow Aerobically; Approved Standard-Eighth Edition, […]-A8, Vol. 29 No. 2 Replaces […]-A7 Vol. 26 No. 2. […] When comparing the activity against these isolates with that of the marketed human health drug of cefepime (screened in the same panel), the exemplified compounds of the present invention show >200 times more selectivity over E. coli.

M. haemo 43411 = test: Dilution antimicrobial susceptibility test (M07-A8), M. haemolytica; assay type: cell-based; details: Mannheimia haemolytica; antibacterial activity by dilution susceptibility test, isolate 43411
Description: as §1

P. multo 43719 = test: Dilution antimicrobial susceptibility test (M07-A8), P. multocida; assay type: cell-based; details: Pasteurella multocida; antibacterial activity by dilution susceptibility test, isolate 43719
Description: as §1

Structure (SMILES)	MIC (E. coli 25922) [µg/mL]	MIC (P. multo 43719) [µg/mL]	E. coli/P. multocida (E. coli 25922)	MIC (M. haemo 43411) [µg/mL]
CCCN(C(=O)CSC(C)=O)c1ccc(CC2=C(C(=O)O)N3C(=O)[C@@H](NC(=O)/C(=N\OC)c4csc(N)n4)[C@H]3SC2)cc1 [Example 9]	64 (≈ 99 µM)	0.25 (≈ 0.387 µM)	256	0.5 (≈ 0.773 µM)
CNS(=O)(=O)c1cc(C)cc(CC2=C(C(=O)O)N3C(=O)[C@@H](NC(=O)/C(=N\OC)c4csc(N)n4)[C@H]3SC2)c1 [Example 27, (6R,7R)-7-{[(2Z)-2-(2-amino-1,3-thiazol-4-yl)-2-(methoxyimino)acetyl]amino}-3-[3-methyl-5-(methylsulfamoyl)benzyl]-8-oxo-5-thia-1-azabicyclo[4.2.0]oct-2-ene-2-carboxylic acid]	8 (≈ 13.8 µM)	0.015 (≈ 0.0258 µM)	533	0.008 (≈ 0.0138 µM)
CO/N=C(\C(=O)N[C@@H]1C(=O)N2C(C(=O)O)=C(Cc3ccc(CSC(C)=O)cc3C)CS[C@H]12)c1csc(N)n1 [Example 2, (6R,7R)-3-{4-[(acetylsulfanyl)methyl]-2-methylbenzyl}-7-{[(2Z)-2-(2-amino-1,3-thiazol-4-yl)-2-(methoxyimino)acetyl]amino}-8-oxo-5-thia-1-azabicyclo[4.2.0]oct-2-ene-2-carboxylic acid]	32 (≈ 55.6 µM)	0.06 (≈ 0.104 µM)	533	0.25 (≈ 0.434 µM)
CO/N=C(\C(=O)N[C@@H]1C(=O)N2C(C(=O)O)=C(Cc3cccc(S(=O)(=O)N(C)C)c3)CS[C@H]12)c1csc(N)n1 [Example 25, (6R,7R)-7-{[(2Z)-2-(2-amino-1,3-thiazol-4-yl)-2-(methoxyimino)acetyl]amino}-3-[3-(dimethylsulfamoyl)benzyl]-8-oxo-5-thia-1-azabicyclo[4.2.0]oct-2-ene-2-carboxylic acid]	8 (≈ 13.8 µM)	0.008 (≈ 0.0138 µM)	1000	0.008 (≈ 0.0138 µM)
CNS(=O)(=O)c1cc(CC2=C(C(=O)O)N3C(=O)[C@@H](NC(=O)/C(=N\OC)c4csc(N)n4)[C@H]3SC2)cc(OC)c1 [Example 26, (6R,7R)-7-{[(2Z)-2-(2-amino-1,3-thiazol-4-yl)-2-(methoxyimino)acetyl]amino}-3-[3-methoxy-5-(methylsulfamoyl)benzyl]-8-oxo-5-thia-1-azabicyclo[4.2.0]oct-2-ene-2-carboxylic acid]	4 (≈ 6.7 µM)	0.015 (≈ 0.0251 µM)	266	0.008 (≈ 0.0134 µM)
CO/N=C(\C(=O)N[C@@H]1C(=O)N2C(C(=O)O)=C(Cc3cccc(NC(=O)CSC(C)=O)c3)CS[C@H]12)c1csc(N)n1 [Example 12, (6R,7R)-3-(3-{[(acetylsulfanyl)acetyl]amino}benzyl)-7-{[(2Z)-2-(2-amino-1,3-thiazol-4-yl)-2-(methoxyimino)acetyl]amino}-8-oxo-5-thia-1-azabicyclo[4.2.0]oct-2-ene-2-carboxylic acid]	8 (≈ 13.2 µM)	0.06 (≈ 0.0992 µM)	133	0.03 (≈ 0.0496 µM)
CO/N=C(\C(=O)N[C@@H]1C(=O)N2C(C(=O)O)=C(Cc3cc(CSC(C)=O)ccc3C)CS[C@H]12)c1csc(N)n1 [Example 3, (6R,7R)-3-{5-[(acetylsulfanyl)methyl]-2-methylbenzyl}-7-{[(2Z)-2-(2-amino-1,3-thiazol-4-yl)-2-(methoxyimino)acetyl]amino}-8-oxo-5-thia-1-azabicyclo[4.2.0]oct-2-ene-2-carboxylic acid]	32 (≈ 55.6 µM)	0.125 (≈ 0.217 µM)	256	0.25 (≈ 0.434 µM)
CNS(=O)(=O)c1ccc(OC)c(CC2=C(C(=O)O)N3C(=O)[C@@H](NC(=O)/C(=N\OC)c4csc(N)n4)[C@H]3SC2)c1 [Example 22, (6R,7R)-7-{[(2Z)-2-(2-amino-1,3-thiazol-4-yl)-2-(methoxyimino)acetyl]amino}-3-[2-methoxy-5-(methylsulfamoyl)benzyl]-8-oxo-5-thia-1-azabicyclo[4.2.0]oct-2-ene-2-carboxylic acid]	64 (≈ 107 µM)	0.25 (≈ 0.419 µM)	256	0.125 (≈ 0.209 µM)
CO/N=C(\C(=O)N[C@@H]1C(=O)N2C(C(=O)O)=C(Cc3cccc(CSC(C)=O)c3C)CS[C@H]12)c1csc(N)n1 [Example 1, (6R,7R)-3-{3-[(acetylsulfanyl)methyl]-2-methylbenzyl}-7-{[(2Z)-2-(2-amino-1,3-thiazol-4-yl)-2-(methoxyimino)acetyl]amino}-8-oxo-5-thia-1-azabicyclo[4.2.0]oct-2-ene-2-carboxylic acid]	16 (≈ 27.8 µM)	0.03 (≈ 0.0521 µM)	533	0.06 (≈ 0.104 µM)

More lines, main results first:

MIC (E. coli 25922) [µg/mL]	MIC (P. multo 43719) [µg/mL]	Structure (SMILES)	E. coli/P. multocida (E. coli 25922)	MIC (M. haemo 43411) [µg/mL]
8 (≈ 13.8 µM)	0.008 (≈ 0.0138 µM)	CO/N=C(\C(=O)N[C@@H]1C(=O)N2C(C(=O)O)=C(Cc3cc(C)cc(NS(C)(=O)=O)c3)CS[C@H]12)c1csc(N)n1 [Example 19, (6R,7R)-7-{[(2Z)-2-(2-amino-1,3-thiazol-4-yl)-2-(methoxyimino)acetyl]amino}-3-{3-methyl-5-[(methylsulfonyl)amino]benzyl}-8-oxo-5-thia-1-azabicyclo[4.2.0]oct-2-ene-2-carboxylic acid]	1000	8 (≈ 13.8 µM)
4 (≈ 7.07 µM)	0.03 (≈ 0.053 µM)	CO/N=C(\C(=O)N[C@@H]1C(=O)N2C(C(=O)O)=C(Cc3ccc(S(C)(=O)=O)cc3C)CS[C@H]12)c1csc(N)n1 [Example 28, (6R,7R)-7-{[(2Z)-2-(2-amino-1,3-thiazol-4-yl)-2-(methoxyimino)acetyl]amino}-3-[2-methyl-4-(methylsulfonyl)benzyl]-8-oxo-5-thia-1-azabicyclo[4.2.0]oct-2-ene-2-carboxylic acid]	133	0.06 (≈ 0.106 µM)
4 (≈ 6.94 µM)	0.03 (≈ 0.052 µM)	CO/N=C(\C(=O)N[C@@H]1C(=O)N2C(C(=O)O)=C(Cc3cccc(NC(=O)CSC)c3)CS[C@H]12)c1csc(N)n1 [Example 11, (6R,7R)-7-{[(2Z)-2-(2-amino-1,3-thiazol-4-yl)-2-(methoxyimino)acetyl]amino}-3-(3-{[(methylsulfanyl)acetyl]amino}benzyl)-8-oxo-5-thia-1-azabicyclo[4.2.0]oct-2-ene-2-carboxylic acid]	133	0.03 (≈ 0.052 µM)
8 (≈ 13.2 µM)	0.03 (≈ 0.0496 µM)	CO/N=C(\C(=O)N[C@@H]1C(=O)N2C(C(=O)O)=C(Cc3cccc(N(C(=O)CS)C(C)C)c3)CS[C@H]12)c1csc(N)n1 [Example 13, (6R,7R)-7-{[(2Z)-2-(2-amino-1,3-thiazol-4-yl)-2-(methoxyimino)acetyl]amino}-8-oxo-3-{3-[propan-2-yl(sulfanylacetyl)amino]benzyl}-5-thia-1-azabicyclo[4.2.0]oct-2-ene-2-carboxylic acid]	266	0.06 (≈ 0.0992 µM)
16 (≈ 28.2 µM)	0.125 (≈ 0.221 µM)	CNS(=O)(=O)c1cccc(CC2=C(C(=O)O)N3C(=O)[C@@H](NC(=O)/C(=N\OC)c4csc(N)n4)[C@H]3SC2)c1 [Example 23, (6R,7R)-7-{[(2Z)-2-(2-amino-1,3-thiazol-4-yl)-2-(methoxyimino)acetyl]amino}-3-[3-(methylsulfamoyl)benzyl]-8-oxo-5-thia-1-azabicyclo[4.2.0]oct-2-ene-2-carboxylic acid]	128	0.06 (≈ 0.106 µM)
